Data set [1] concerns Cupriavidus metallidurans CML2. In kind it is cell-based. The note with it: for MIC: lowest concentration of heavy metal inhibiting growth of CML2. An excerpt: Note that the MIC values refer to the lowest concentration of each heavy metal required to inhibit the growth of Cupriavidus metallidurans CML2.
In a further data set the test system is rice seedling. As to the kind of experiment: Rice seedling root and shoot growth. The format is in vivo. The note with it: 14-day cultivation, cadmium alone. From the text:
FIG. 7A-7C are schematic diagrams illustrating an effect of Cupriavidus metallidurans CML2 inoculation on rice seedling growth and cadmium remediation. FIG. 7A illustrates the effects of Cupriavidus metallidurans CML2 on rice seedling morphology; FIG. 7B illustrates the effects of Cupriavidus metallidurans CML2 on relative lengths of the root and shoot under different conditions. C: control, treated with sterile NB medium; CML2: treated with strain CML2; Cd: treated with Cd^2+; CML2+Cd: treated with both CML2 and Cd^2+; FIG. 7C illustrates the effects of Cupriavidus metallidurans CML2 on cadmium accumulation in rice seedling roots and shoots; data represents means±SEM; different letters (a or b) above the columns indicate significant differences between the three groups using one-way ANOVA at P<0.05; “***” indicates statistically significant differences according to a t-test, P<0.001.
To assess the impact of strain CML2 as a facilitator for plant growth and a cadmium remediation agent, Embodiment 8 conducted an analysis on the relative lengths of rice roots and shoots as well as cadmium concentrations, under different treatments: control, Cupriavidus metallidurans CML2 (CML2), cadmium (Cd), and CML2+Cd (Simultaneous treatment with cadmium and CML2). The control group (C) consisted of rice plants cultured in a sterile nutrient solution.

Several values for one entry are separate records, joined by “and”; a condition that tells them apart may be missing. Identical values can stand only once.

The term MIC denotes the smallest concentration in the dilution series that meets the test's criterion for growth inhibition. High values mean a need for much substance, low ones inhibition by little substance. Turning to `[Cd+2]` [Cadmium (Cd^2+), Cadmium], in data set [1], the “tolerance of CML2 to heavy metal” value is 13 mM and 2400 mg/L; the MIC amounted to 13.1 mM. In addition, the “inhibition of rice root and shoot growth compared to control” value in the data set with rice seedling is given as “approximately 89%”.

Compound `[Cu+2]` [Copper (Cu^2+), Copper] displayed an MIC in data set [1] of 2.0 mM.

As to `[Mn+2]` [Manganese (Mn^2+), Manganese], in data set [1], the “tolerance of CML2 to heavy metal” value is listed as 110 mM and the minimum inhibitory concentration (MIC) came out at 110 mM.

In data set [1], `[Ni+2]` [Nickel (Ni^2+), Nickel] had an MIC of 2.5 mM.

Consider `[Se+4]` [Selenium (Se^4+), Selenium], for which the MIC in data set [1] is on record as 45 mM.

In the case of `[Zn+2]` [Zinc (Zn^2+), Zinc], the MIC in data set [1] is 20 mM.

Consider Mercury [Mercury (Hg^2+)], for which, in data set [1], the “tolerance of CML2 to heavy metal” value is 0.03 mM and the MIC is 0.03 mM.

The values are drawn from patent US20250083204A1, “CUPRIAVIDUS METALLIDURANS CML2, ITS PREPARATION, AND ITS BIOR[…] FOR HEAVY METAL-CONTAMINATED ENVIRONMENT” (priority 2023, published 2025).
